According to patent US20090320718A1, “FLUOROSURFACTANTS” (priority 2006, published 2009):
Blank lines part the entries; values can stand above or below the compound they belong to.

Assay: Determination of the surface tension (Kruss tensiometer K12, ring method)
Format: physicochemical
Conditions: for surface tension: measurement solutions in deionised water, 20° C.
Experimental: • Instrument: Kruss tensiometer (model K12) • Temperature of the measurement solutions: 20° C. • Measurement module employed: ring • Concentration of the measurement solutions: about 0.5 to 3.0 g/l in deionised water
Further details on the method are given in the European Commission publication: Classification, Packaging and Labelling of Dangerous Substances in the European Union, Part II-Test Methods, Annex V-Methods for Determining the Physical-Chemical Properties, the Toxicity and the Ecotoxicity, Part A, Surface Tension (A.5), January 1997, pages 51-57, and also the OECD Guideline for the Testing of Chemicals, Section 1, Physical-Chemical Properties, method 115, pages 1-7, adopted: 27.07.95, the contents of which in this respect are expressly part of the disclosure content of the present application.

Compound: O=S(=O)([O-])CCCCCCCCCCCSCCC(F)(F)F.[Na+] [CF3—CH2—CH2—S—(CH2)11—SO3Na]
surface tension (Concentration: 100.7 mg/100 ml): 38.55 mN/m

surface tension (concentration: 99.8 mg/100 ml): 31.29 mN/m
Compound: 11-(S-trifluoromethyl)mercaptoundecane-1-sulfonic acid sodium salt [CF3—S—(CH2)11—SO3Na]

Surface tension of an aqueous solution of the sodium salt (at 0.016 mol/l, sodium salt (2 eq of NaOH/eq of carboxylic acid)): 33.4 mN/m
Compound: O=C(O)CCCCCCCCCCSCCC(F)(F)F [Example 5c, 11-(3,3,3-Trifluoropropylsulfanyl)undecanoic acid]
